Measurements published in ChEMBL document CHEMBL1130974, “High affinity phenylglycinol-based NK1 receptor antagonists” (Bioorg Med Chem Lett, 1998).

Tests used:
[1] = molecular target: Substance-P receptor (Homo sapiens, UniProt P25103); experiment: Affinity towards hNK1 receptor by displacement of [125I]- Substance P from hNK1 receptor expressed in CHO cells; format: cell-based
[2] = Oral bioavailability; format: ADME, organism-based; conditions: rat, in vivo
[3] = Maximal plasma drug concentration was determined; format: ADME, organism-based; conditions: rat
[4] = Steady state volume of distribution dosing at 3 mg/kg iv; format: ADME, organism-based; design: dose 3 mg/kg, route intravenous; conditions: rat, in vivo
[5] = Tmax was determined; format: ADME, organism-based; conditions: rat, in vivo
[6] = Plasma elimination half-life was determined; format: ADME, organism-based; conditions: rat
[7] = molecular target: T1, Neuromedin-K receptor (Homo sapiens, UniProt P29371); experiment: Binding affinity for Tachykinin receptor 3
T1 sequence (P29371 whole entry): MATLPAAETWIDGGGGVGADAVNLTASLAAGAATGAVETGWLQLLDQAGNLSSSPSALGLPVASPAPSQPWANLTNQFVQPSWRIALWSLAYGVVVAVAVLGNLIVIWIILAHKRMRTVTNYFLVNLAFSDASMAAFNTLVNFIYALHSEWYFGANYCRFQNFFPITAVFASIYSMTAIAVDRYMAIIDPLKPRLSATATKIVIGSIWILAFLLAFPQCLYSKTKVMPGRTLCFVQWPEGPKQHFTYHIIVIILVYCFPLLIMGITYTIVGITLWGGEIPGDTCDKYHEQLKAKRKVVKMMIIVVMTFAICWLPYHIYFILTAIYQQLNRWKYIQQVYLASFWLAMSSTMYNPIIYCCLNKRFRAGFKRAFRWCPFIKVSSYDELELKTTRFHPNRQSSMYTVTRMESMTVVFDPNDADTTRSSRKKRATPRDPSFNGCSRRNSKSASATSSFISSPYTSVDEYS

[8] = molecular target: T2, Substance-K receptor (Homo sapiens, UniProt P21452); experiment: Binding affinity for Tachykinin receptor 2
T2 sequence (P21452 whole entry): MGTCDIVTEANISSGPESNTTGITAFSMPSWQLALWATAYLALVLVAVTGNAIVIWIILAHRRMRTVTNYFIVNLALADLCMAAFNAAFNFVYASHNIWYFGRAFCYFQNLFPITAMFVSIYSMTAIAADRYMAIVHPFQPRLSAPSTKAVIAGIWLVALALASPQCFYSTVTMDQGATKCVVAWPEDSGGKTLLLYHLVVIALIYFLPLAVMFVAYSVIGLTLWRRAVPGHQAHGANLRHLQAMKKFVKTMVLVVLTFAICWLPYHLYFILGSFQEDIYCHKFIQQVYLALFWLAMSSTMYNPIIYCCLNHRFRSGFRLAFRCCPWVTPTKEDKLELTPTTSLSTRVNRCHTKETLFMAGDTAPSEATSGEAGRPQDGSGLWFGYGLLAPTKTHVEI

[9] = Low affinity binding to calcium channel

Sequence of Substance-P receptor (P25103 whole entry): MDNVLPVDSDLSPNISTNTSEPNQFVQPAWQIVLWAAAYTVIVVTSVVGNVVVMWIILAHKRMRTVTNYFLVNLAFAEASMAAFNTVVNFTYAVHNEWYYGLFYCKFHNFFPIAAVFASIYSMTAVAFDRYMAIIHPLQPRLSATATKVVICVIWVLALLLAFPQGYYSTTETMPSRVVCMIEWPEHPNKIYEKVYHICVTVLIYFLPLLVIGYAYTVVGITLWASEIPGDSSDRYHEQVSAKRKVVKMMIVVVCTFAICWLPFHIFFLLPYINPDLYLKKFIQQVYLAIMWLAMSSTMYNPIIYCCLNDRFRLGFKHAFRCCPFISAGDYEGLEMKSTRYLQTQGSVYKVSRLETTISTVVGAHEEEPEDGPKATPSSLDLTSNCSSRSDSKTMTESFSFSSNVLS

Cn1nnc(CN[C@H](COCc2cc(C(F)(F)F)cc(C(F)(F)F)c2)c2ccccc2)n1
IC50 [1]: 0.015 µM

Cn1nnnc1CN[C@H](COCc1cc(C(F)(F)F)cc(C(F)(F)F)c1)c1ccccc1
IC50 [1]: 0.01 µM

CN(Cc1n[nH]c(O)n1)[C@H](COCc1cc(C(F)(F)F)cc(C(F)(F)F)c1)c1ccccc1
bioavailability [2]: 16% | Cmax [3]: 97 ng/mL | Vd [4]: 3.5 L/kg | IC50 [1]: 0.00043 µM | Tmax [5]: 30 min | half-life [6]: 48 min | IC50 [7]: > 1 µM | IC50 [8]: > 1 µM | IC50 [9]: > 1000 µM

Cc1cc(Cl)cc(COC[C@H](c2ccccc2)N(C)Cc2n[nH]c(O)n2)c1
IC50 [1]: 0.0022 µM

CN(Cc1nc[nH]n1)[C@H](COCc1cc(C(F)(F)F)cc(C(F)(F)F)c1)c1ccccc1
IC50 [1]: 0.0014 µM

Cc1cc(COC[C@H](c2ccccc2)N(C)Cc2n[nH]c(=O)[nH]2)cc(C(C)(C)C)c1
IC50 [1]: 0.00042 µM

CN(Cc1nn[nH]n1)[C@H](COCc1cc(C(F)(F)F)cc(C(F)(F)F)c1)c1ccccc1
IC50 [1]: 0.07 µM

CN(Cc1nnnn1C)[C@H](COCc1cc(C(F)(F)F)cc(C(F)(F)F)c1)c1ccccc1
IC50 [1]: 0.013 µM

CCN(Cc1n[nH]c(O)n1)[C@H](COCc1cc(C(F)(F)F)cc(C(F)(F)F)c1)c1ccccc1
IC50 [1]: 0.0008 µM

CN(Cc1n[nH]c(O)n1)[C@H](COCc1cc(Cl)cc(Cl)c1)c1ccccc1
IC50 [1]: 0.0015 µM

FC(F)(F)c1cc(COC[C@@H](NCc2nnc[nH]2)c2ccccc2)cc(C(F)(F)F)c1
IC50 [1]: 0.005 µM

O=c1[nH]nc(CN[C@H](COCc2cc(C(F)(F)F)cc(C(F)(F)F)c2)c2ccccc2)[nH]1
IC50 [1]: 0.0024 µM

CN(Cc1nnn(C)n1)[C@H](COCc1cc(C(F)(F)F)cc(C(F)(F)F)c1)c1ccccc1
IC50 [1]: 0.016 µM

CCCN(Cc1n[nH]c(O)n1)[C@H](COCc1cc(C(F)(F)F)cc(C(F)(F)F)c1)c1ccccc1
IC50 [1]: 0.002 µM

FC(F)(F)c1cc(COC[C@@H](NCc2nn[nH]n2)c2ccccc2)cc(C(F)(F)F)c1
IC50 [1]: 0.023 µM
